Data reported in patent US6730672B2, “Aminoheterocyclic derivatives as antithrombotic or anticoagulant agents” (Zeneca Limited, priority 1994, dated 2004).

Assays:
human Factor Xa = human Factor Xa (Homo sapiens, UniProt P00742); test: Measurement of Factor Xa Inhibition (chromogenic substrate S-2765); type: biochemical; details: test a), pH7.5, 37° C., read-out: IC50 against Factor Xa
Method: a) Measurement of Factor Xa Inhibition
An in vitro assay system was carried out based on the method of Kettner et al., J. Biol. Chem., 1990, 265, 18289-18297, whereby various concentrations of a test compound were dissolved in a pH7.5 buffer containing 0.5% of polyethylene glycol and incubated at 37° C. with human Factor Xa (0.001 Units/ml, 0.3 ml) for 15 minutes. The chromogenic substrate S-2765 (KabiVitum AB, 20 μM) was added and the mixture was incubated at 37° C. for 20 minutes whilst the absorbance at 405 nm was measured. The maximum reaction velocity (Vmax) was determined and compared with that of a control sample containing no test compound. Inhibitor potency was expressed as an IC50 value.

human thrombin = human thrombin (Homo sapiens, UniProt P00734); test: Measurement of Thrombin Inhibition (chromogenic substrate S-2238); type: biochemical; details: test b), read-out: IC50 against thrombin
Description: b) Measurement of Thrombin Inhibition
The procedure of method a) was repeated except that human thrombin (0.005 Units/ml) and the chromogenic substrate S-2238 (KabiVitum AB) were employed.

Sequence of human Factor Xa (P00742 235-488 limits assumed): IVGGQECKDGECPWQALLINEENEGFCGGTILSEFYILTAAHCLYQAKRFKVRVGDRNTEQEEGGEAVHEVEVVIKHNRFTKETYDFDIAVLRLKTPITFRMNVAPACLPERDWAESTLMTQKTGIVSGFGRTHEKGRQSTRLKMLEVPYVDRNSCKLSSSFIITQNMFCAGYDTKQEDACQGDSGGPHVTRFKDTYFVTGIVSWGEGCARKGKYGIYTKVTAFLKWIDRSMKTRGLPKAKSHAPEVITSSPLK
Sequence of human Factor Xa (P00742 41-179 partner limits assumed): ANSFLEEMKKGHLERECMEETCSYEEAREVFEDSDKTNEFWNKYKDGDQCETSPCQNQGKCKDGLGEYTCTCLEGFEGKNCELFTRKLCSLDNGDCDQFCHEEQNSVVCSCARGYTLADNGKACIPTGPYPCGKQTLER

SMILES	melting point	other results
O=C(C1CCN(c2ccncc2)CC1)N1CCN(S(=O)(=O)c2ccc3ccccc3c2)C(Cc2ccccc2)C1 (stereo not drawn) [Example 66, 2-benzyl-1-(2-naphthylsulphonyl)-4-[1-(4-pyridyl)piperidin-4-ylcarbonyl]piperazine]	186 to 188 °C	–
O=C(O)C1CN(S(=O)(=O)c2ccc3ccccc3c2)CCN1C(=O)C1CCN(c2ccncc2)CC1 (stereo not drawn) [Example 61, 2-carboxy-4-(2-naphthylsulphonyl)-1-[1-(4-pyridyl)piperidin-4-ylcarbonyl]piperazine]	225 to 228 °C (dec.)	–
O=C(N1CCN(c2ccncc2)CC1)N1CCN(S(=O)(=O)c2ccc3ccccc3c2)CC1 [Example 50, 1-(2-naphthylsulphonyl)-4-[4-(4-pyridyl)-piperazin-1-ylcarbonyl]piperazine]	210 to 212 °C	–
O=C(C1CCN(c2ccncc2)CC1)N1CCN(S(=O)(=O)c2ccc(-c3ccccn3)cc2)CC1 [Example 60, 1-[4-(2-pyridyl)phenylsulphonyl]-4-[1-(4-pyridyl)piperidin-4-ylcarbonyl]piperazine]	224 to 226 °C	–
CCOC(=O)C1CN(S(=O)(=O)c2ccc3cc(Br)ccc3c2)CCN1C(=O)C1CCN(c2ccncc2)CC1 (stereo not drawn) [Example 82, 4-(6-bromonaphth-2-ylsulphonyl)-2-ethoxycarbonyl-1-[1-(4-pyridyl)-piperidin-4-ylcarbonyl]piperazine]	117 to 121 °C	–
O=C(C1CCN(c2ccncc2)CC1)N1CCN(S(=O)(=O)c2ccc3ccccc3c2)CC1 [Example 2, 1-(2-naphthylsulphonyl)-4-[1-(4-pyridyl)piperidin-4-ylcarbonyl]piperazine]	172 to 173 °C	–
O=C(C1CCN(S(=O)(=O)c2ccc3cc(Br)ccc3c2)CC1)N1CCN(c2ccncc2)CC1 [Example 92, 1-[1-(6-bromonaphth-2-ylsulphonyl)piperidin-4-ylcarbonyl]-4-(4-pyridyl)piperazine]	229 to 230 °C	–
O=C(CNS(=O)(=O)c1ccc2ccccc2c1)NCCNC(=O)C1CCN(c2ccncn2)CC1 [Example 32, 2-(2-naphthalenesulphonamido)-N-{2-[1-(4-pyrimidinyl)piperidin-4-ylcarbonylamino]ethyl}acetamide]	178 to 179 °C	–
O=C(CNS(=O)(=O)c1ccc2ccccc2c1)NCCNC(=O)C1CCN(c2ccncc2)CC1 [Example 30, 2-(2-naphthalenesulphonamido)-N-{2-[1-(4-pyridyl)piperidin-4-ylcarbonylamino]ethyl}acetamide]	107 to 109 °C	–
O=C(C1CCN(c2ccncc2)CC1)N1CCCN(S(=O)(=O)c2ccc3ccccc3c2)CC1 [Example 49, 1-(2-naphthylsulphonyl)-4-[1-(4-pyridyl)piperidin-4-ylcarbonyl]-1,4-diazepane]	178 to 180 °C	–
O=C(C1CCN(c2ccncn2)CC1)N1CCN(S(=O)(=O)/C=C/c2ccc(Cl)cc2)CC1 [Example 57, 1-[(E)-4-chlorostyrylsulphonyl]-4-[1-(4-pyrimidinyl)piperidin-4-ylcarbonyl]piperazine]	209 to 210 °C	–
O=C(O)C1CN(C(=O)C2CCN(c3ccncc3)CC2)CCN1S(=O)(=O)c1ccc2ccccc2c1 (stereo not drawn) [Example 43, 1-(2-naphthylsulphonyl)-4-[1-(4-pyridyl)piperidin-4-ylcarbonyl]-piperazine-2-carboxylic acid]	188 to 193 °C	–
O=C(C1CCN(c2ccncc2)CC1)N1CCN(S(=O)(=O)c2ccc(-c3ccc(Cl)cc3)cc2)CC1 [Example 41, Compound No. 3, 1-(4′-chloro-4-biphenylylsulphonyl)-4-[1-(4-pyridyl)-piperidin-4-ylcarbonyl]piperazine]	–	IC50 (human Factor Xa): 0.01 µM; IC50 (human thrombin): 83 µM
O=C(O)C1CN(S(=O)(=O)c2ccc3cc(Br)ccc3c2)CCN1C(=O)C1CCN(c2ccncc2)CC1 (stereo not drawn) [Example 83, 4-(6-bromonaphth-2-ylsulphonyl)-2-carboxy-1-[1-(4-pyridyl)piperidin-4-ylcarbonyl]piperazine]	216 to 222 °C (dec.)	–
O=C(CNS(=O)(=O)c1ccc2ccccc2c1)NC(CNC(=O)N1CCN(c2ccncc2)CC1)C(=O)N1CCCCC1 (stereo not drawn) [Example 3, 2-(2-naphthalenesulphonamido)-N-{1-piperidinocarbonyl-2-[4-(4-pyridyl)piperazin-1-ylcarbonylamino]-ethyl}acetamide]	223 to 226 °C	–
O=C(C1CN(S(=O)(=O)c2ccc3cc(Br)ccc3c2)CCN1C(=O)C1CCN(c2ccncc2)CC1)N1CCOCC1 (stereo not drawn) [Example 84, 4-(6-bromonaphth-2-ylsulphonyl)-2-morpholinocarbonyl-1-[1-(4-pyridyl)-piperidin-4-ylcarbonyl]piperazine]	235 to 237 °C	–

SMILES	melting point	other results
O=C(c1ccc(NS(=O)(=O)/C=C/c2ccc(Cl)cc2)cc1)N1CCN(c2ccncc2)CC1 [Example 89, N-{4-[4-(4-pyridyl)piperazin-1-ylcarbonyl]phenyl}-(E)-4-chlorostyrenesulphonamide]	207 to 209 °C	–
O=C(CC1CCN(c2ccncc2)CC1)NCC(NC(=O)CNS(=O)(=O)c1ccc2ccccc2c1)C(=O)N1CCCCC1 (stereo not drawn) [Example 4, 2-(2-naphthalenesulphonamido)-N-(1-piperidinocarbonyl-2-{2-[1-(4-pyridyl)piperidin-4-yl]acetamido}ethyl)acetamide]	148 to 149 °C	–
O=C(C1CCN(c2ccncn2)CC1)N1CCN(S(=O)(=O)c2ccc3ccccc3c2)CC1 [Example 55, 1-(2-naphthylsulphonyl)-4-[1-(4-pyrimidinyl)piperidin-4-ylcarbonyl]-piperazine]	203 to 205 °C	–
Cc1cc(N2CCC(C(=O)N3CCN(S(=O)(=O)c4ccc5cc(Cl)ccc5c4)CC3)CC2)nc(N)n1 [Example 86, 4-[1-(2-amino-6-methylpyrimidin-4-yl)piperidin-4-ylcarbonyl]-1-(6-chloronaphth-2-ylsulphonyl)piperazine]	210 to 212 °C	–
O=C(C1CCN(c2nc(Cl)nc(Cl)n2)CC1)N1CCN(S(=O)(=O)c2ccc3cc(Cl)ccc3c2)CC1 [Example 73, 1-(6-chloronaphth-2-ylsulphonyl)-4-[1-(4,6-dichloro-1,3,5-triazin-2-yl)piperidin-4-ylcarbonyl]piperazine]	230 to 233 °C	–
CCOC(=O)C(CNC(=O)C1CCN(c2ccncc2)CC1)NC(=O)CNS(=O)(=O)c1ccc2ccccc2c1 (stereo not drawn) [Example 6, N-{1-ethoxycarbonyl-2-[1-(4-pyridyl)-piperidin-4-ylcarbonylamino]ethyl}-2-(2-naphthalenesulphonamido)-acetamide]	142 to 145 °C	–
O=C(CNS(=O)(=O)c1ccc2ccccc2c1)NCC(NC(=O)C1CCN(c2ccncc2)CC1)C(=O)N1CCCCC1 (stereo not drawn) [Example 11, 2-(2-naphthalenesulphonamido)-N-{2-piperidinocarbonyl-2-[1-(4-pyridyl)piperidin-4-ylcarbonylamino]ethyl}acetamide]	200 to 202 °C	–
Cc1cc(N2CCC(C(=O)NCCNC(=O)CNS(=O)(=O)c3ccc4ccccc4c3)CC2)nc(N)n1 [Example 34, N-{2-[1-(2-amino-6-methylpyrimidin-4-yl)piperidin-4-ylcarbonylamino]ethyl}-2-(2-naphthalenesulphonamido)acetamide]	225 to 226 °C	–
Nc1nccc(N2CCC(C(=O)N3CCN(S(=O)(=O)c4ccc5cc(Cl)ccc5c4)CC3)CC2)n1 [Example 70, 4-[1-(2-aminopyrimidin-4-yl)piperidin-4-ylcarbonyl]-1-(6-chloronaphth-2-ylsulphonyl)piperazine]	265 to 267 °C	–
O=C(C1CCN(c2ccncn2)CC1)N1CCN(S(=O)(=O)c2ccc3cc(Cl)ccc3c2)CC1 [Example 69, 1-(6-chloronaphth-2-ylsulphonyl)-4-[1-(4-pyrimidinyl)-piperidin-4-ylcarbonyl]piperazine]	218 to 219 °C	–
O=C(CCNS(=O)(=O)c1ccc2ccccc2c1)NC(CNC(=O)C1CCN(c2ccncc2)CC1)C(=O)N1CCCCC1 (stereo not drawn) [Example 20, 3-(2-naphthalenesulphonamido)-N-{1-(piperidinocarbonyl)-2-[1-(4-pyridyl)piperidin-4-ylcarbonylamino]ethyl}propionamide]	201 to 203 °C	–
Cc1ccc(NC(=O)NC(CNC(=O)C2CCN(c3ccncc3)CC2)C(=O)N2CCCCC2)cc1 (stereo not drawn) [Example 22, N-{2-piperidinocarbonyl-2-[3-(4-tolyl)ureido]ethyl}-1-(4-pyridyl)-piperidine-4-carboxamide]	252 to 253 °C	–
O=C(CNS(=O)(=O)c1ccc2ccccc2c1)N[C@@H](CC(=O)N1CCN(c2ccncc2)CC1)C(=O)N1CCCCC1 [Example 18, 2-(2-naphthalenesulphonamido)-N-{(1S)-1-(piperidinocarbonyl)-2-[4-(4-pyridyl)piperazin-1-ylcarbonyl]ethyl}-acetamide]	201 to 203 °C	–
Cc1ccc(-c2ccc(S(=O)(=O)N3CCN(C(=O)C4CCN(c5ccncc5)CC4)CC3)cc2)cc1 [Example 58, 1-(4′-methylbiphenyl-4-ylsulphonyl)-4-[1-(4-pyridyl)piperidin-4-ylcarbonyl]piperazine]	213 to 217 °C	–
Cl.O=C(c1ccc(NS(=O)(=O)c2ccc(-c3ccc(Br)cc3)cc2)cc1)N1CCN(c2ccncc2)CC1	201 to 205 °C	–
O=C(CNS(=O)(=O)c1ccc2ccccc2c1)NC(CNC(=O)C1CCN(c2ccncc2)CC1)C(=O)O (stereo not drawn) [Example 9, 2-[2-(2-naphthalenesulphonamido)acetamido]-3-[1-(4-pyridyl)piperidin-4-ylcarbonylamino]propionic acid]	108 to 111 °C (dec.)	–
